Results taken from patent publication US20240350485A1 (TARIS Biomedical LLC, priority 2021, published 2024).

How the values were obtained:
[1] = in vitro; settings: bladder tumor tissue
[2] = Stability in rat urine; assay type: in vitro ADME; settings: freshly collected rat urine, 37° C.
Experimental: (§1) At the end of 6-hours post-dialysis incubation, drug was analyzed and the recovery was calculated against the spiked concentrations.

[3] = rat, in vivo
From the text: (§3) Rat bladders (5 groups of rats, n=3/group) were surgically catheterized under anesthesia and the catheter was externalized, tunneled subcutaneously, and connected to a vascular access harness (VAH) in the neck. […] Plasma and bladder samples were collected at all time points.

[4] = test system: ERK1/2 phosphorylation; assay: pERK/ERK in orthotopic bladder UM-UC-1 tumors by capillary immunoblotting; assay type: in vivo, nude rats
From the text: The signals for pERK1/2 were divided by the total ERK1/2 signal in the same sample and the mean of the pERK1/2 values for the corresponding vehicle-treated samples was set at a relative value of 1. At each timepoint, the pERK/ERK ratio for each tumor sample was divided by the mean pERK/ERK ratio derived from the corresponding control samples. There was 1 exception, as there were no vehicle-treated samples at the 120-hour timepoint, the pERK/ERK ratios for the erdafitinib-treated samples at the 120-hour timepoint were divided by the mean of the 48-hour vehicle-treated group.

[5] = Stability in minipig urine; assay type: in vitro ADME; settings: freshly collected minipig urine, 37° C.
Experimental: as §1

[6] = In vitro protein binding in minipig urine; assay type: in vitro ADME
Experimental: (§2) Albuminuria/proteinuria had minimal effect on % free form in urine.
as §1

[7] = In vitro protein binding in human urine; assay type: in vitro ADME
Experimental: as §2, §1

[8] = test system: orthotopic UM-UC-1 bladder tumors; assay: Continuous bladder perfusion, orthotopic UM-UC-1 bladder cancer model
Experimental: Perfusion studies: The bladders of the study animals were cannulated on Day 1 and the animals were allowed to recover for 3 days. On Day 5, UM-UC-1 cells (2×10^6 cells) were injected into the lateral wall of each bladder. […] Based on the in vitro results, target urine concentrations of 0.5, 1.0, and 5.0 μg/mL were used in the perfusion experiments. Body weight, daily urine production, and daily water consumption were recorded. At necropsy, a plasma sample, bladder photographs, and bladder weight measurements were recorded.
The percent reduction in relative tumor weight between the control group and the drug perfusion groups was determined as an initial measure of efficacy. Bladder tissue and tumor samples were also submitted for analysis of FGFR signaling activity by determining the phosphorylated fibroblast growth factor receptor substrate (FRS)2a levels and the pERK to ERK ratio.

[9] = In vitro release (IVR) of permeation prototypes in simulated urine; assay type: physicochemical; settings: highest release rates at pH 5, significantly reduced at pH 8
Experimental: The drug formats evaluated included erdafitinib free base, erdafitinib free base plus HP-β-CD and erdafitinib salts, e.g. HCl salt.
The pH range for normal human urine is in the 5.5 to 7 range, but some disease states can result in higher urine pH values (pH 8). […] The base material for this tubing could be either AR-75A-B20 or AC-4075A-B20.
Drug and device constituents are described in Tables 11 and 12, respectively. In vitro release (IVR) testing was performed with both prototypes, using simulated urine at 3 different pH ranges as the release media: pH 5, 6.8, and 8 (n=3 systems tested in each media).

[10] = test system: orthotopic RT-112 bladder tumor; assay: Continuous bladder perfusion, RT-112 implanted into the bladder wall
From the text: Perfusion studies: The experimental study design was the same as described in Example 11 (FIG. 12), except that the perfusions were continued until the time of necropsy on Day 14.

[11] = in vitro; settings: rat, bladder tissue
[12] = Solubility as a function of pH; assay type: physicochemical; settings: normal urine pH range of 5.5 to 7
[13] = In vitro release of prototype permeation systems in simulated urine (Table 5); assay type: physicochemical; settings: simulated urine at various pHs
[14] = In vitro protein binding in rat urine; assay type: in vitro ADME
Experimental: as §2, §1

[15] = in vitro; settings: minipig, bladder tissue
[16] = in vitro; settings: human, bladder tissue
[17] = rats dosed orally, 2 and 7 hours
Experimental: Extracellular signal-regulated kinase (ERK)1/2 phosphorylation was assessed as a PD marker for FGFR kinase inhibition in tumors at various time points post administration/installation.

[18] = Stability in human urine; assay type: in vitro ADME; settings: freshly collected human urine, 37° C.
Experimental: as §1

[19] = urine
From the text: On Day −7 a catheter was surgically placed in the bladder of each animal. The distal end of the catheter was anchored to a subcutaneous site and attached to a vascular access port (VAP). The port was secured and the animals were allowed to recover. Each animal was subsequently fitted with a portable infusion pump that was attached to the bladder catheter via the VAP. […] All excreted urine was collected in 24-hour intervals through Day 6 or 8. Blood samples were collected daily on study Days 1 to 8. Bladder tissue samples were collected from each animal at necropsy.

[20] = in vivo; settings: female, Sprague-Dawley, rat
From the text: as §3

[21] = In vitro permeation screening of device materials; assay type: physicochemical; design: key: “O” is permeable (suitable for the stripe material); “A” is practically impermeable; “X” is impermeable (suitable for a base material, i.e., the non-stripe portion of a system body)
Experimental: A number of polymeric materials were tested to determine their suitability as a material of construction of an elastic system body for release of various erdafitinib formulations in a permeation-controlled release system. The materials included silicone, several thermoplastic polyurethane (TPUs) manufactured by Lubrizol Life Science (Bethlehem, PA).
In general, materials that are impermeable to erdafitinib, the API, are suitable for use as the base material in permeation systems. Materials that are permeable to the API are suitable for use as the stripe material in permeation systems. Platinum cured silicone, thermoplastic polyurethanes (TPUs), and ethylene vinyl acetate (EVA) materials were screened (Table 10). The test articles were filled with formulated API (powder or tablets), sealed, placed in foil pouches, and gamma irradiated (nominal 35 kGy). The systems were placed into simulated urine (pH 6.8), stored at 37° C., and sampled periodically. The amount of API in each sample was determined by high-performance liquid chromatography (HPLC) analysis.

COc1cc(OC)cc(N(CCNC(C)C)c2ccc3ncc(-c4cnn(C)c4)nc3c2)c1 [Erdafitinib, N-(3,5-dimethoxyphenyl)-N′-(1-methylethyl)-N-[3-(1-methyl-1H-pyrazol-4-yl)quinoxalin-6-yl]ethane-1,2-diamine]
fraction unbound [1]: 0.4
stability in urine ([2]; 6 hours): sufficiently stable
recovery at 6 h ([2]; rat urine spiked at 1, 3, and 5 μg/mL): 90 to 95%
C96 h [3]: BQL
C120 h [3]: BQL
ERK1/2 phosphorylation in UM-UC-1 tumors ([4]; 6 mg/kg intravesical and 20 mg/kg oral doses, 2 hours post dosing): statistically significant decrease
pERK/ERK ([4]; 2 hours post dose, IVES, 6 mg/kg, relative to vehicle group): 0.62
pERK/ERK ([4]; 2 hours post dose, p.o., 20 mg/kg, relative to vehicle group): 0.52
pERK/ERK ([4]; 7 hours post dose, IVES, 6 mg/kg, relative to vehicle group): 0.60
pERK/ERK ([4]; 7 hours post dose, p.o., 20 mg/kg, relative to vehicle group): 0.61
pERK/ERK ([4]; 48 hours post dose, IVES, 6 mg/kg, relative to vehicle group): 0.71
pERK/ERK ([4]; 48 hours post dose, p.o., 20 mg/kg, relative to vehicle group): 0.76
pERK/ERK ([4]; 120 hours post dose, IVES, 6 mg/kg, relative to 48-hour vehicle group): 0.98
pERK/ERK ([4]; 120 hours post dose, p.o., 20 mg/kg, relative to 48-hour vehicle group): 1.22
stability in urine ([5]; 6 hours): sufficiently stable
recovery at 6 h ([5]; minipig urine spiked at 1, 3, and 5 μg/mL): 92 to 93%
Percent erdafitinib free in urine [6]: 97%
Percent erdafitinib free in urine [7]: 95%
percentage change in body weight vs vehicle control ([8]; 0.5, 1.0, and 5.0 μg/mL treatment groups): Statistically non-significant difference
bladder weight vs vehicle control ([8]; 0.5, 1.0 and 5 μg/mL nominal urine concentrations): significant dose-related decrease
cage side observations ([8]; all treatment groups): no visible signs of abnormal behavior or clinical symptoms
pH dependency of release by drug format [9]: significant pH dependency
bladder weight vs vehicle control ([10]; 1.0 μg/mL perfusate concentration): significant bladder weight reduction
bladder weight decrease vs vehicle control ([10]; 0.25 and 0.5 μg/mL dose groups): not statistically significant
percentage change in body weight vs vehicle control ([10]; 0.5, 1.0, and 5.0 μg/mL treatment groups, except Group 4 on Day 11): Statistically non-significant difference
body weight loss, maximum mean values ([10]; erdafitinib-treated group, Day 11): up to −3%
fraction unbound [11]: 0.33
solubility [12]: significant pH-dependent solubility
Observations (release profile) ([13]; device AR-62A base with HP-60D-35 stripe): Release profile shows more pH
Observations (release profile) ([13]; device EG-80A base with HP-60D-35 stripe): Release profile shows more pH
Percent erdafitinib free in urine [14]: 84%
fraction unbound [15]: 0.79
fraction unbound [16]: 0.39
exposure levels in s.c. tumors lower than in orthotopic tumors [17]: Roughly 2 fold
stability in urine ([18]; 6 hours): sufficiently stable
recovery at 6 h ([18]; human urine spiked at 1, 3, and 5 μg/mL): 89 to 98%
Daily erdafitinib recoveries, of average daily amount administered [19]: 15.7%
concentration at 96 h ([20]; C96 h): 56.9 ng/mL
concentration at 120 h ([20]; C120 h): 10.7 ng/mL
In Vitro Permeation ([21]; material EVA (CoTran 9712)): Δ
In Vitro Permeation ([21]; material Silicone (MED-4750)): X
In Vitro Permeation ([21]; material TPU (AC-4075A)): X
In Vitro Permeation ([21]; material TPU (AR-62A)): X
In Vitro Permeation ([21]; material TPU (EG-80A)): Δ
In Vitro Permeation ([21]; material TPU (HP-60D-35)): ◯
In Vitro Permeation ([21]; material TPU (HP-93A-100)): ◯
In Vitro Permeation ([21]; material TPU (PC-3575A)): X
In Vitro Permeation ([21]; material TPU (TT-1074A)): X
